Laboratory results: US7709451B2, “Method and composition for treating immune complex associated disorders” (Trustees of Boston University, priority 1997, dated 2010)
“Also recorded” adds a separate entry of the source.

Assays:
AM14 RF+ B cells = test: RF+ B cell proliferation (3[H]-thymidine incorporation); assay type: cell-based, mouse; details: for Inhibition of RF+ B cell response to mAb PL2-3 / chromatin-containing IC: FIGS. 5A-5C
Description: Cell culture and reagents. Spleen cell preparations were T-depleted and cultured with the appropriate ligands for 40-48 hrs. In some experiments, B cells were preincubated with CD40L as described (Rifkin, et al., J. Immunol. 165, 1626-1633 (2000)). Proliferation was assessed by ^3[H]-thymidine incorporation during the final 16 hours of culture. Data are presented as the mean percentage of the anti-IgM response from triplicate cultures. The percentage of the anti-IgM response was calculated according to the formula: [(cpm experimental condition−cpm CD40L alone)/(cpm anti-IgM−cpm CD40L alone)×100].
In some experiments, DNase I (type IV) (Sigma, St. Louis, Mo.), chloroquine (Sigma), concanamycin B, bafilomycin A (Sigma), or 12 μg/ml of the inhibitory CpG S-ODN 2008 (Lenart, et al., Antisense Nucleic Acid Drug Dev. 4, 247-256 (2001)) (Oligo's Etc.) were added to the cultures 15-30 min-2 hr before the addition of the ligands.

[1] = in vivo; cited from earlier work
[2] = system: CD11c positive dendritic cells from bone marrow of C57BL/6 mice; test: Dendritic cell activation (TNF-α and IL-12 ELISA, CD86 flow cytometry); assay type: cell-based, mouse; details: for TNF-α in culture supernatants (ELISA): 48 hours
Description: Dendritic cells were generated from the bone marrow of C57BL/6 mice by in vitro culture with GM-CSF and IL-4 for 6 days. On day 6, the CD11c positive dendritic cells were isolated using magnetic beads (Miltenyi Biotec) and either pre-incubated, or not pre-incubated, for 30 minutes with ODN 2088, an inhibitory oligodeoxynucleotide that specifically blocks signaling through TLR9. The stimulatory ODN 1826 (CpG, 3 μg/ml), that specifically activates through TLR9, or lipopolysaccharide (LPS, 10 μg/ml), that activates through TLR4, or culture medium only (media), was then added to the cultures. After 48 hours, levels of TNF-α (8A) and IL-12 (8B) in the culture supernatants were measured by ELISA (results shown as OD units determined by absorption at 405 nm). After removal of the supernatants, cells were collected and analyzed by flow cytometry for expression of the co-stimulatory molecule CD86 (8c). Unstimulated refers to the level of expression of CD86 in the presence of media alone, whereas stimulated refers to the level of expression of CD86 in the presence of the stimulus (ODN 1826 or LPS).
Dendritic cells were generated from the bone marrow of C57BL/6 mice by in vitro culture with GM-CSF and IL-4 for 6 days. On day 6, the CD11c positive dendritic cells were isolated using magnetic beads (Miltenyi Biotec). The dendritic cells were then either pre-incubated, or not pre-incubated, for 30 minutes with ODN 2088 at 12 μg/ml. The stimulatory ODN 1826 (3 μg/ml), that specifically activates through TLR9, lipopolysaccharide (LPS, 10 μg/ml), that activates through TLR4, the anti-chromatin antibody PL2-3 (50 μg/ml), three different antibody/protein ratios of α-TNP/TNP-BSA immune complexes (50 μg/ml), or the culture medium only (media), was then added to the cultures. After 48 hours, levels of TNF-α in the culture supernatants was measured by ELISA (results shown as pg/ml; lower level of sensitivity of assay is 50 pg/ml). A representative experiment of 3 similar experiments is shown.
(§1) Dendritic cells were generated from the bone marrow of C57BL/6 wildtype mice and from C57BL/6 mice lacking the Fc receptor γ chain in by in vitro culture of the bone marrow cells with GM-CSF and IL-4 for 6 days. On day 6, the CD11c positive dendritic cells were isolated using magnetic beads. The stimulatory ODN 1826 (3 μg/ml), that specifically activates through TLR9, lipopolysaccharide (LPS, 10 μg/ml), the anti-chromatin antibodies PL2-3 (50 μg/ml; IgG2a) and PL2-8 (50 μg/ml; IgG2b), two different antibody/protein ratios of α-TNP/TNP-BSA immune complexes (50 μg/ml), or the culture medium only (media), was then added to the dendritic cell cultures. After 48 hours, levels of TNF-α in the culture supernatants was measured by ELISA (results shown as pg/ml; lower level of sensitivity of assay is 50 pg/ml). A representative experiment of 2 similar experiments is shown.

RF+ MyD88−/− B cells = test: Proliferation of RF+ MyD88-/- B cells; assay type: cell-based, mouse; details: FIG. 4C
Description: To investigate the potential role of TLRs in mediating RF+ B cell responses to autoantibody/autoantigen IC, we crossed the AM14 transgenes onto a MyD88−/− background (Adachi, et al., Immunity 9, 143-150 (1998)). B cells from RF− MyD88+/+ (wildtype), RF+ MyD88+/+, and RF+ MyD88−/− offspring, identified by a combination of PCR and FACS analysis (FIGS. 4A-4B), were assessed for their ability to respond to anti-IgM, CpG ODN, and LPS, as well as to a panel of anti-nucleosome mAbs and autoimmune sera.
Mice. […] Complement receptor genotype was determined by flow cytometry using the FITC-conjugated 7G6 antibody (Pharmingen, San Diego, Calif.). MyD88 genotype was determined by PCR using the primers: MyD88F (5′-TGGCATGCCTCCATCATAGTTAACC-3′) [SEQ ID NO: 1], MyD88R (5′-GTCAGAAACAACCACCACCATGC-3′) [SEQ ID NO: 2], and neoR (5′-ATCGCCTTCTATCGCCTTCTTGACG-3′) [SEQ ID NO: 3] […]
Cell culture and reagents. […] Proliferation was assessed by ^3[H]-thymidine incorporation during the final 16 hours of culture. […] The percentage of the anti-IgM response was calculated according to the formula: [(cpm experimental condition−cpm CD40L alone)/(cpm anti-IgM−cpm CD40L alone)×100].

[3] = system: dendritic cells from C57BL/6 mice lacking the Fc receptor γ chain; test: Dendritic cell TNF-α production, Fc receptor γ chain deficient mice; assay type: cell-based, mouse; details: Table 2, Fc receptor γ chain deficient dendritic cells; 48 hours
Description: as §1

[4] = Table 1, column 2088: pre-incubated 30 minutes with ODN 2088 at 12 μg/ml
[5] = Table 1, column None: no ODN 2088 pre-incubation, lower level of sensitivity 50 pg/ml
[6] = Table 2, wildtype C57BL/6 dendritic cells

Cl.N [ammonium chloride]
Inhibition of RF+ B cell response to mAb PL2-3 / chromatin-containing IC (AM14 RF+ B cells): inhibited

CO/C1=C\C(C)=C\[C@@H](C)[C@@H](O)[C@@H](C)C/C(C)=C/C=C/[C@H](OC)[C@@H]([C@@H](C)[C@@H](O)[C@H](C)[C@@]2(O)C[C@@H](O)[C@H](C)[C@@H](C(C)C)O2)OC1=O [bafilomycin A]
Inhibition of RF+ B cell response to mAb PL2-3 / chromatin-containing IC (AM14 RF+ B cells): inhibited

CCN(CC)CCCC(C)Nc1ccnc2cc(Cl)ccc12 (stereo not drawn) [chloroquine]
Treatment of autoimmune diseases including rheumatoid arthritis and SLE [1]: effective treatment | Inhibition of RF+ B cell response to mAb PL2-3 / chromatin-containing IC (AM14 RF+ B cells): completely blocked; also recorded: inhibited | Inhibition of proliferative response to stimulatory CpG S-ODN 1826 (AM14 RF+ B cells; TLR9 ligand): inhibited

C/C=C/[C@H]1O[C@@](O)([C@@H](C)[C@H](O)[C@H](C)[C@H]2OC(=O)/C(OC)=C/C(C)=C/[C@@H](C)[C@@H](O)[C@@H](CC)[C@@H](O)[C@H](C)C/C(C)=C/C=C/[C@@H]2OC)C[C@@H](O[C@H]2C[C@@H](O)[C@H](OC(N)=O)[C@@H](C)O2)[C@@H]1C [concanamycin A]
Inhibition of RF+ B cell response to mAb PL2-3 / chromatin-containing IC (AM14 RF+ B cells): completely blocked

C/C=C/[C@H]1O[C@@](O)([C@@H](C)[C@H](O)[C@H](C)[C@H]2OC(=O)/C(OC)=C/C(C)=C/[C@@H](C)[C@@H](O)[C@@H](C)[C@@H](O)[C@H](C)C/C(C)=C/C=C/[C@@H]2OC)C[C@@H](O[C@H]2C[C@@H](O)[C@H](OC(N)=O)[C@@H](C)O2)[C@@H]1C [concanamycin B]
Inhibition of RF+ B cell response to mAb PL2-3 / chromatin-containing IC (AM14 RF+ B cells): inhibited

DNase
Effect of DNase on RF+ B cell proliferative response to anti-nucleosome mAb PL2-3 or autoimmune serum (AM14 RF+ B cells; DNase added to assay medium (FIG. 1)): dramatically reduced | Effect of DNase on responses to F(ab')2 anti-IgM and LPS (AM14 RF+ B cells; FIG. 1, nonspecific toxicity control): unaffected

ODN 1826
Cytokine production by dendritic cells ([2]; 3 μg/ml, 48 hours (FIGS. 8A, 8B)): induces TNF-α and IL-12 production | Co-stimulatory molecule (CD86) expression on dendritic cells ([2]; FIG. 8C): induces upregulation of co-stimulatory molecules | TNF-α in culture supernatants (ELISA) [2, 4]: <50 pg/mL | TNF-α in culture supernatants (ELISA) [2, 5]: 2347 pg/mL | TNF-α in culture supernatants (ELISA) [2, 6]: 7899 pg/mL | Proliferative response of B cells from RF+ MyD88-deficient mice (RF+ MyD88−/− B cells): unable to respond | TNF-α in culture supernatants (ELISA) [3]: 2373 pg/mL

lipopolysaccharide [LPS]
TNF-α in culture supernatants (ELISA) [2, 4]: 2393 pg/mL | TNF-α in culture supernatants (ELISA) [2, 5]: 2514 pg/mL | TNF-α in culture supernatants (ELISA) [2, 6]: 7056 pg/mL | Proliferative response of B cells from RF+ MyD88-deficient mice (RF+ MyD88−/− B cells): responded only weakly | TNF-α in culture supernatants (ELISA) [3]: 3411 pg/mL
